Measured values taken from patent US10100058B2, “Fused heterocyclic compounds as CaM kinase inhibitors” (Gilead Sciences, Inc., priority 2016, dated 2018).

Target: recombinant CaMKIIδ (Homo sapiens (Human), UniProt Q13557)
Test: CaMKIIδ biochemical assay (HTRF)
Conditions: 10 pM CaMKIIδ, 110 nM calmodulin, 12 μM ATP, 1 hour; read-out: CAMKIID-HTRF-384V2 (IC50 - nM)
Procedure: CaMKIIδ Biochemical Assay
The biochemical activity of recombinant CaMKIIδ was measured by monitoring the phosphorylation of a target peptide using Homogenous Time Resolved Fluorescence (HTRF) technology from CisBio Bioassays.

IC50 [nM]	Structure (SMILES)
0.47	CCN(CC)[C@@H](C)CNC(=O)c1cc(-c2cnn3ccc(-c4cccs4)nc23)nc(N2CC[C@H]2C(=O)NCC(F)F)c1 [Example 282, N—((S)-2-(diethylamino)propyl)-2-((S)-2-((2,2-difluoroethyl)carbamoyl)azetidin-1-yl)-6-(5-(thiophen-2-yl)pyrazolo[1,5-a]pyrimidin-3-yl)isonicotinamide]
1.37	CCN(CC)[C@@H](C)CNC(=O)c1cc(-c2cnn3ccc(-c4cccs4)nc23)nc(N2CC[C@H]2C(=O)NCC(F)(F)F)c1 [Example 283, N—((S)-2-(diethylamino)propyl)-2-(5-(thiophen-2-yl)pyrazolo[1,5-a]pyrimidin-3-yl)-6-((S)-2-((2,2,2-trifluoroethyl)carbamoyl)azetidin-1-yl)isonicotinamide]
0.18	CCN(CC)[C@@H](C)CNC(=O)c1cc(-c2cnn3ccc(-c4cccs4)nc23)nc(N2CC[C@H]2C(=O)N2CC(F)C2)c1 [Example 284, N—((S)-2-(diethylamino)propyl)-2-((S)-2-(3-fluoroazetidine-1-carbonyl)azetidin-1-yl)-6-(5-(thiophen-2-yl)pyrazolo[1,5-a]pyrimidin-3-yl)isonicotinamide]
0.42	CCN(CC)[C@@H](C)CNC(=O)c1cc(-c2cnn3ccc(-c4cccs4)nc23)nc(N2CC[C@H]2C(=O)N2CC3CC3C2)c1 (stereo partly drawn) [Example 285, 2-((2S)-2-(3-azabicyclo[3.1.0]hexane-3-carbonyl)azetidin-1-yl)-N—((S)-2-(diethylamino)propyl)-6-(5-(thiophen-2-yl)pyrazolo[1,5-a]pyrimidin-3-yl)isonicotinamide]
0.16	CCN(CC)[C@@H](C)CNC(=O)c1cc(-c2cnn3ccc(-c4cccs4)nc23)nc(N2CC[C@H]2C(=O)N2CC(NS(C)(=O)=O)C2)c1 [Example 286, N—((S)-2-(diethylamino)propyl)-2-((S)-2-(3-(methylsulfonamido)azetidine-1-carbonyl)azetidin-1-yl)-6-(5-(thiophen-2-yl)pyrazolo[1,5-a]pyrimidin-3-yl)isonicotinamide]
0.33	CCN(CC)[C@@H](C)CNC(=O)c1cc(-c2cnn3ccc(-c4cccs4)nc23)nc(N2CC[C@H]2C(=O)N(C)OC)c1 [Example 287, N—((S)-2-(diethylamino)propyl)-2-((S)-2-(methoxy(methyl)carbamoyl)azetidin-1-yl)-6-(5-(thiophen-2-yl)pyrazolo[1,5-a]pyrimidin-3-yl)isonicotinamide]
0.29	CCN(CC)[C@@H](C)CNC(=O)c1cc(-c2cnn3ccc(-c4cccs4)nc23)nc(N2CC[C@H]2C(=O)N2CCCC2)c1 [Example 288, N—((S)-2-(diethylamino)propyl)-2-((S)-2-(pyrrolidine-1-carbonyl)azetidin-1-yl)-6-(5-(thiophen-2-yl)pyrazolo[1,5-a]pyrimidin-3-yl)isonicotinamide]
0.65	CCN(CC)[C@@H](C)CNC(=O)c1cc(-c2cnn3ccc(-c4cccs4)nc23)nc(N2CC[C@H]2C(=O)NOC)c1 [Example 289, N—((S)-2-(diethylamino)propyl)-2-((S)-2-(methoxycarbamoyl)azetidin-1-yl)-6-(5-(thiophen-2-yl)pyrazolo[1,5-a]pyrimidin-3-yl)isonicotinamide]
14.1	CCN(CC)[C@@H](C)CNC(=O)c1cc(-c2cnn3ccc(-c4cccs4)nc23)nc(N2CC[C@@H]2C(=O)NC)c1 [Example 290, N—((S)-2-(diethylamino)propyl)-2-((R)-2-(methylcarbamoyl)azetidin-1-yl)-6-(5-(thiophen-2-yl)pyrazolo[1,5-a]pyrimidin-3-yl)isonicotinamide]
3.55	CCN(CC)[C@@H](C)CNC(=O)c1cc(-c2cnn3ccc(-c4cccs4)nc23)nc(N2CC[C@H]2C(=O)Nc2nccs2)c1 [Example 291, N—((S)-2-(diethylamino)propyl)-2-((S)-2-(thiazol-2-ylcarbamoyl)azetidin-1-yl)-6-(5-(thiophen-2-yl)pyrazolo[1,5-a]pyrimidin-3-yl)isonicotinamide]
0.58	CCN(CC)[C@@H](C)CNC(=O)c1cc(-c2cnn3ccc(-c4cccs4)nc23)nc(N2CC[C@H]2C(=O)N2CC(C)(C)C2)c1 [Example 292, N—((S)-2-(diethylamino)propyl)-2-((S)-2-(3,3-dimethylazetidine-1-carbonyl)azetidin-1-yl)-6-(5-(thiophen-2-yl)pyrazolo[1,5-a]pyrimidin-3-yl)isonicotinamide]
0.16	CCN(CC)[C@@H](C)CNC(=O)c1cc(-c2cnn3ccc(-c4cccs4)nc23)nc(N2CC[C@H]2C(=O)N2CCOCC2)c1 [Example 293, N—((S)-2-(diethylamino)propyl)-2-((S)-2-(morpholine-4-carbonyl)azetidin-1-yl)-6-(5-(thiophen-2-yl)pyrazolo[1,5-a]pyrimidin-3-yl)isonicotinamide]
0.22	CCN(CC)[C@@H](C)CNC(=O)c1cc(-c2cnn3ccc(-c4cccs4)nc23)nc(N2CC[C@H]2C(=O)N2CC(F)(F)C2)c1 [Example 294, N—((S)-2-(diethylamino)propyl)-2-((S)-2-(3,3-difluoroazetidine-1-carbonyl)azetidin-1-yl)-6-(5-(thiophen-2-yl)pyrazolo[1,5-a]pyrimidin-3-yl)isonicotinamide]
0.25	CCN(CC)[C@@H](C)CNC(=O)c1cc(-c2cnn3ccc(-c4cccs4)nc23)nc(N2CC[C@H]2C(=O)N2CC(OC)C2)c1 [Example 295, N—((S)-2-(diethylamino)propyl)-2-((S)-2-(3-methoxyazetidine-1-carbonyl)azetidin-1-yl)-6-(5-(thiophen-2-yl)pyrazolo[1,5-a]pyrimidin-3-yl)isonicotinamide]
1.93	CCN(CC)[C@@H](C)CNC(=O)c1cc(-c2cnn3ccc(-c4cccs4)nc23)nc(N2CC[C@H]2C(=O)O)c1 [Example 296, (S)-1-(4-(((S)-2-(diethylamino)propyl)carbamoyl)-6-(5-(thiophen-2-yl)pyrazolo[1,5-a]pyrimidin-3-yl)pyridin-2-yl)azetidine-2-carboxylic Acid]
0.23	CCN(CC)[C@@H](C)CNC(=O)c1cc(-c2cnn3ccc(-c4cccs4)nc23)nc(N2CC[C@H]2C(=O)N(C)O)c1 [Example 298, N—((S)-2-(diethylamino)propyl)-2-((S)-2-(hydroxy(methyl)carbamoyl)azetidin-1-yl)-6-(5-(thiophen-2-yl)pyrazolo[1,5-a]pyrimidin-3-yl)isonicotinamide]
0.22	CCN(CC)[C@@H](C)CNC(=O)c1cc(-c2cnn3ccc(-c4cccs4)nc23)nc(N2CC[C@H]2C(N)=O)c1 [Example 299, 2-((S)-2-carbamoylazetidin-1-yl)-N—((S)-2-(diethylamino)propyl)-6-(5-(thiophen-2-yl)pyrazolo[1,5-a]pyrimidin-3-yl)isonicotinamide]
0.58	CCN(CC)[C@@H](C)CNC(=O)c1cc(-c2cnn3ccc(-c4cccs4)nc23)nc(N2CC[C@H]2C(=O)NCC#N)c1 [Example 300, 2-((S)-2-((cyanomethyl)carbamoyl)azetidin-1-yl)-N—((S)-2-(diethylamino)propyl)-6-(5-(thiophen-2-yl)pyrazolo[1,5-a]pyrimidin-3-yl)isonicotinamide]
0.48	CCN(CC)[C@@H](C)CNC(=O)c1cc(-c2cnn3ccc(-c4cccs4)nc23)nc(N2CC[C@H]2C(=O)NCCOC)c1 [Example 301, N—((S)-2-(diethylamino)propyl)-2-((S)-2-((2-methoxyethyl)carbamoyl)azetidin-1-yl)-6-(5-(thiophen-2-yl)pyrazolo[1,5-a]pyrimidin-3-yl)isonicotinamide]
0.2	CCN(CC)[C@@H](C)CNC(=O)c1cc(-c2cnn3ccc(-c4cccs4)nc23)nc(N2CC[C@H]2C(=O)N2CC(S(C)(=O)=O)C2)c1 [Example 302, N—((S)-2-(diethylamino)propyl)-2-((S)-2-(3-(methylsulfonyl)azetidine-1-carbonyl)azetidin-1-yl)-6-(5-(thiophen-2-yl)pyrazolo[1,5-a]pyrimidin-3-yl)isonicotinamide]
0.16	CCN(CC)[C@@H](C)CNC(=O)c1cc(-c2cnn3ccc(-c4cccs4)nc23)nc(N2CC[C@H]2C(=O)N2CCS(=O)(=O)CC2)c1 [Example 303, N—((S)-2-(diethylamino)propyl)-2-((S)-2-(1,1-dioxidothiomorpholine-4-carbonyl)azetidin-1-yl)-6-(5-(thiophen-2-yl)pyrazolo[1,5-a]pyrimidin-3-yl)isonicotinamide]
0.17	CCN(CC)[C@@H](C)CNC(=O)c1cc(-c2cnn3ccc(-c4cccs4)nc23)nc(N2CC[C@H]2C(=O)N2CC(O)C2)c1 [Example 304, N—((S)-2-(diethylamino)propyl)-2-((S)-2-(3-hydroxyazetidine-1-carbonyl)azetidin-1-yl)-6-(5-(thiophen-2-yl)pyrazolo[1,5-a]pyrimidin-3-yl)isonicotinamide]
51.7	CNC(=O)[C@@H]1CCN1c1cc(C(=O)NC[C@H](C)N)cc(-c2cnn3ccc(-c4cccs4)nc23)n1 [Example 305, N—((S)-2-aminopropyl)-2-((S)-2-(methylcarbamoyl)azetidin-1-yl)-6-(5-(thiophen-2-yl)pyrazolo[1,5-a]pyrimidin-3-yl)isonicotinamide]
10.6	CCN[C@@H](C)CNC(=O)c1cc(-c2cnn3ccc(-c4cccs4)nc23)nc(N2CC[C@H]2C(=O)NC)c1 [Example 306, N—((S)-2-(ethylamino)propyl)-2-((S)-2-(methylcarbamoyl)azetidin-1-yl)-6-(5-(thiophen-2-yl)pyrazolo[1,5-a]pyrimidin-3-yl)isonicotinamide]
0.27	CCN(CC)[C@@H](C)CNC(=O)c1cc(-c2cnn3ccc(-c4ccns4)nc23)nc(N2CC[C@H]2C(=O)NC)c1 [Example 307, N—((S)-2-(diethylamino)propyl)-2-(5-(isothiazol-5-yl)pyrazolo[1,5-a]pyrimidin-3-yl)-6-((S)-2-(methylcarbamoyl)azetidin-1-yl)isonicotinamide]
